This is an account of results in patent US11291666B2, “Uses” (INTRA-CELLULAR THERAPIES, INC., priority 2016, dated 2022).

One experiment has as its target T1, bovine retina PDE6 (Bos taurus, UniProt P11541+P23439).
T1 construct: bovine retina PDE6; from tissue; host or cells: bovine retina
T1 sequence (P11541 2-856 limits assumed): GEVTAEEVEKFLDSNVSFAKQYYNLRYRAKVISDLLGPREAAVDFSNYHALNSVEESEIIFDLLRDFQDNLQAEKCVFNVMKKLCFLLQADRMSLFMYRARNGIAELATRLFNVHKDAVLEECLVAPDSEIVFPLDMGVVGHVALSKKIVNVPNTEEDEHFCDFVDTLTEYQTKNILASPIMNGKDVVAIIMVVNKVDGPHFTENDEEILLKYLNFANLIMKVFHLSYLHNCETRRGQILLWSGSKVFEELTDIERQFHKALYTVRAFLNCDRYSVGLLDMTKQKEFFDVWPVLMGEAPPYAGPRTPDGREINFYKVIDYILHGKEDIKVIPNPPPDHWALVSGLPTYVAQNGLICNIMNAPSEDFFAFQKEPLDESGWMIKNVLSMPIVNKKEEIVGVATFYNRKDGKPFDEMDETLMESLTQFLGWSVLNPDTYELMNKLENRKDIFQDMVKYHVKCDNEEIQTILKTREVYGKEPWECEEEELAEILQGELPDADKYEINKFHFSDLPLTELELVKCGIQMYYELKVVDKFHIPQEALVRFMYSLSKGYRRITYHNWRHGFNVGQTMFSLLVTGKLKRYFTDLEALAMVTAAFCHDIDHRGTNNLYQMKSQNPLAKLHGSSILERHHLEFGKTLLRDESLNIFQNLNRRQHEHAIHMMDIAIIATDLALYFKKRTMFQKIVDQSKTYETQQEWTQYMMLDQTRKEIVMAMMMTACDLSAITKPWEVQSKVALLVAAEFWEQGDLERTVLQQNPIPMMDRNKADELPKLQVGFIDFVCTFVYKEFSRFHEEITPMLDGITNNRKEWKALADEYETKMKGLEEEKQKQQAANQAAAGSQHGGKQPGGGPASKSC
T1 sequence (P23439 2-850 limits assumed): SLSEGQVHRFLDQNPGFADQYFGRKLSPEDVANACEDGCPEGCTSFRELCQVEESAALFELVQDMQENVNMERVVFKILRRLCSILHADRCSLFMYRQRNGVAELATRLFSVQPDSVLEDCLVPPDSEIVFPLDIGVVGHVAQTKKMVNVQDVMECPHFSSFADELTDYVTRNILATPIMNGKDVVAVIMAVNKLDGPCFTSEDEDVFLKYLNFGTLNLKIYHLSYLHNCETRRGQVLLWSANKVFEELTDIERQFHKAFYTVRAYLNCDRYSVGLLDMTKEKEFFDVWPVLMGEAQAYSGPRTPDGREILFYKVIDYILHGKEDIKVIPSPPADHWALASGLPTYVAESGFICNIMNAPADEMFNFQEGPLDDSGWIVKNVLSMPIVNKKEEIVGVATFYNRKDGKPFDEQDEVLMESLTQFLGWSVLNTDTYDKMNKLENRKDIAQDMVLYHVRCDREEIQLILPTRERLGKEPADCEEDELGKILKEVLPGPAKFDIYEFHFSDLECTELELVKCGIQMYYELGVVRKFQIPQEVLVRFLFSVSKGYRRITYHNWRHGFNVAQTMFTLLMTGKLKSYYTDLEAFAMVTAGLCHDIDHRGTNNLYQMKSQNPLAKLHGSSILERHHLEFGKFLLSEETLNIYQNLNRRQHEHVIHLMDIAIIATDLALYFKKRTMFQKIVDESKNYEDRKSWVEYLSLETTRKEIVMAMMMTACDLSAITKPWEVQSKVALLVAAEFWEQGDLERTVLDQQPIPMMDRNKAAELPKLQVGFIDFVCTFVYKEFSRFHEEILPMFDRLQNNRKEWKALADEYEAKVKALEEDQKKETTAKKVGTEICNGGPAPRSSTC
In words: PDE selectivity, bovine retina PDE6. It counts as biochemical. Here is the method:
One unit of enzyme will hydrolyze […] of 3′,5′-cAMP to 5′-AMP per min at pH 7.5 at 30° C. […] 99 μl of diluted enzyme solution is added into each well in a flat bottom 96-well polystyrene plate to which 1 μι of test compound dissolved in 100% DMSO is added.

The next experiment deals with BV2 cells. Description: Quantitative PCR of inflammatory cytokine mRNA in LPS-treated BV2 cells. To be noted: LPS 10 microgram/ml, Compound 214 10 microgram/ml, FIG. 2. In kind it is cell-based, mouse.
The test system of experiment [1] is IL1β mRNA in the hippocampus. In words: IL1β expression in hippocampus in vivo after LPS (quantitative PCR). To be noted: mice; LPS 2 mg/kg s.c.; 10 mg/kg i.p.; six hours post injection; FIG. 3. Here is the method: At six hours post injection, levels of IL1β in the hippocampus are measured via quantitative PCR of IL1β mRNA. IL1β is considered a marker of inflammation. Data are presented in FIG. 3 (***p<0.01 vs LPS alone, ANOVA with Newman-Keuls post-hoc test).

The structures appear in SMILES notation. Entries after “also recorded” stand apart in the source; their conditions may differ.

At bovine retina PDE6, `CN1C(=O)c2c(nn(Cc3ccc(-c4cccc(F)n4)cc3)c2Nc2ccccc2)N2C1=N[C@@H]1CCC[C@@H]12` [Compound 214] showed an IC50 of 324 nM. The “LPS-induced increase in expression of IL1β (mRNA, quantitative PCR)” value in the experiment with BV2 cells is “suppresses; also recorded: significantly blunts”. Besides, in experiment [1], the “LPS-induced increase in expression of IL1β in the hippocampus (mRNA)” value was “suppresses; also recorded: significantly blunts”.
